Laboratory results: the supplement of paper PMC11451515

Key:
Conditions in all cases: 48 h
NOMO1 [1] = assay: AUC of viability dose-response curve (% viability x log10 dose units); higher = less sensitive
In short: (§1)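 Viability of medium-adapted leukemia cells was measured by CellTiter-Glo One luminescence after 48 h at 37°C with library compounds in DMSO. Doses were 11 threefold steps from 47 μM to 0.79 nM, in 1536-well plates at 500 or 1000 cells/well. Signals were normalised per plate to DMSO and cell-free wells and fitted with a four-parameter log-logistic model on log10 dose. Area under the curve was integrated by trapezoidal rule, with curves exceeding full viability scaled and failed quality-control curves removed.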

P12-Ichikawa [2] = assay: as above
In short: as §1

SEM cells [3] = assay: as above
In short: as §1

SEM cells [4] = assay: cell viability relative to DMSO control; higher = less cytotoxic
In short: (§2)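 Library compounds in DMSO were pin-dosed into 1536-well plates (5 μl) holding NOMO1 or SEM (500 cells/well) or P12-Ichikawa (1000 cells/well) leukemia cells, across an 11-point threefold series of 47 μM to 0.79 nM. Each cell line had been adapted for at least four passages in each medium. CellTiter-Glo One luminescence was read after 48 h at 37°C. Viability is the per-plate percentage relative to DMSO wells, with cell-free wells as background.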

NOMO1 [5] = assay: as above
In short: as §2

P12-Ichikawa [6] = assay: as above
In short: as §2

C/C(O)=C(\C#N)C(=O)Nc1ccc(C(F)(F)F)cc1
AUC of viability dose-response curve
Conditions | NOMO1 [1] | P12-Ichikawa [2] | SEM cells [3]
HPLM + 10% dialyzed FBS | 457 | 454 | 437
RPMI 5 mM glucose + 10% FBS | 470 | 455 | 430
RPMI 5 mM glucose + 10% dialyzed FBS | 436 | 432 | 431

C[C@H](c1ccc(F)cc1CCCC(=O)O)N(c1cc(F)ccc1F)[S+](=O)([O-])c1ccc(Cl)cc1
AUC of viability dose-response curve
Conditions | NOMO1 [1] | P12-Ichikawa [2] | SEM cells [3]
HPLM + 10% dialyzed FBS | 452 | 454 | 462
RPMI 5 mM glucose + 10% FBS | 455 | 449 | 465
RPMI 5 mM glucose + 10% dialyzed FBS | 450 | 447 | 461

CCc1cnn2c(NCc3ccc[n+]([O-])c3)cc(N3CCCC[C@H]3CCO)nc12
AUC of viability dose-response curve
Conditions | NOMO1 [1] | P12-Ichikawa [2] | SEM cells [3]
HPLM + 10% dialyzed FBS | 224 | 236 | 206
RPMI 5 mM glucose + 10% FBS | 231 | 230 | 193
RPMI 5 mM glucose + 10% dialyzed FBS | 223 | 234 | 198

CN1CCN(c2ncc(-c3cc(Cl)cc(Cl)c3Cl)c(N)n2)CC1
cell viability [%], SEM cells [4]
Conditions | RPMI 5 mM glucose + 10% FBS | RPMI 5 mM glucose + 10% dialyzed FBS
0.000781 µM | 111 | 106
0.00234 µM | 117 | 118
0.00702 µM | 133 | 117
0.0211 µM | 137 | 133
0.0632 µM | 135 | 139
0.19 µM | 135 | 135
0.569 µM | 126 | 150
1.71 µM | 135 | 141
5.12 µM | 155 | 144
15.4 µM | 138 | 141
46.1 µM | 132 | 132

AUC of viability dose-response curve
Conditions | HPLM + 10% dialyzed FBS | RPMI 5 mM glucose + 10% FBS | RPMI 5 mM glucose + 10% dialyzed FBS
NOMO1 [1] | 337 | 305 | 341
SEM cells [3] | 467 | 459 | 450

CCC(=O)O[C@@]1(CC[C@H]2[C@@H]3CCC/4=C/C(=O)CC[C@]4(C)[C@H]3CC[C@]12C)C(=O)CO
cell viability [%]
Conditions | NOMO1 [5] | P12-Ichikawa [6] | SEM cells [4]
HPLM + 10% dialyzed FBS, 0.000781 µM | 75.8 | 99.2 | 95.3
HPLM + 10% dialyzed FBS, 0.00234 µM | 115 | 107 | 100
HPLM + 10% dialyzed FBS, 0.00702 µM | 103 | 104 | 101
HPLM + 10% dialyzed FBS, 0.0211 µM | 111 | 115 | 110
HPLM + 10% dialyzed FBS, 0.0632 µM | 119 | 110 | 109
HPLM + 10% dialyzed FBS, 0.19 µM | 128 | 116 | 98.8
HPLM + 10% dialyzed FBS, 0.569 µM | 106 | 125 | 86.7
HPLM + 10% dialyzed FBS, 1.71 µM | 140 | 107 | 57.4
HPLM + 10% dialyzed FBS, 5.12 µM | 108 | 98.9 | 46.1
HPLM + 10% dialyzed FBS, 15.4 µM | 85.4 | 83.7 | 27.3
HPLM + 10% dialyzed FBS, 46.1 µM | 78.7 | 83.1 | 23.7
RPMI 5 mM glucose + 10% FBS, 0.000781 µM | 109 | 91.6 | 63.3
RPMI 5 mM glucose + 10% FBS, 0.00234 µM | 112 | 122 | 83.6
RPMI 5 mM glucose + 10% FBS, 0.00702 µM | 106 | 109 | 86
RPMI 5 mM glucose + 10% FBS, 0.0211 µM | 111 | 113 | 84
RPMI 5 mM glucose + 10% FBS, 0.0632 µM | 107 | 112 | 84.8
RPMI 5 mM glucose + 10% FBS, 0.19 µM | 118 | 118 | 76.1
RPMI 5 mM glucose + 10% FBS, 0.569 µM | 115 | 109 | 51
RPMI 5 mM glucose + 10% FBS, 1.71 µM | 104 | 109 | 35.3
RPMI 5 mM glucose + 10% FBS, 5.12 µM | 104 | 106 | 24.3
RPMI 5 mM glucose + 10% FBS, 15.4 µM | 108 | 78.9 | 14.1
RPMI 5 mM glucose + 10% FBS, 46.1 µM | 103 | 69.1 | 12.7
RPMI 5 mM glucose + 10% dialyzed FBS, 0.000781 µM | 107 | 102 | 95.1
RPMI 5 mM glucose + 10% dialyzed FBS, 0.00234 µM | 103 | 103 | 103
RPMI 5 mM glucose + 10% dialyzed FBS, 0.00702 µM | 102 | 108 | 99.9
RPMI 5 mM glucose + 10% dialyzed FBS, 0.0211 µM | 119 | 109 | 88.5
RPMI 5 mM glucose + 10% dialyzed FBS, 0.0632 µM | 124 | 98.6 | 98
RPMI 5 mM glucose + 10% dialyzed FBS, 0.19 µM | 122 | 117 | 91.7
RPMI 5 mM glucose + 10% dialyzed FBS, 0.569 µM | 124 | 116 | 79.7
RPMI 5 mM glucose + 10% dialyzed FBS, 1.71 µM | 129 | 106 | 47.2
RPMI 5 mM glucose + 10% dialyzed FBS, 5.12 µM | 128 | 110 | 27.6
RPMI 5 mM glucose + 10% dialyzed FBS, 15.4 µM | 86.1 | 79.9 | 19.5
RPMI 5 mM glucose + 10% dialyzed FBS, 46.1 µM | 83.3 | 63 | 13.8

AUC of viability dose-response curve
Conditions | HPLM + 10% dialyzed FBS | RPMI 5 mM glucose + 10% FBS | RPMI 5 mM glucose + 10% dialyzed FBS
NOMO1 [1] | 457 | 467 | 458
P12-Ichikawa [2] | 454 | 452 | 455

CC1(C)[C@H](C(=O)O)N2C(=O)C[C@H]2[S+]1(=O)[O-]
AUC of viability dose-response curve
Conditions | NOMO1 [1] | P12-Ichikawa [2] | SEM cells [3]
HPLM + 10% dialyzed FBS | 396 | 468 | 472
RPMI 5 mM glucose + 10% FBS | 411 | 470 | 468
RPMI 5 mM glucose + 10% dialyzed FBS | 420 | 469 | 472

Nc1ncnc2c1ncn2[C@@H]1O[C@H](CO)[C@@H](O)[C@H]1O
AUC of viability dose-response curve
Conditions | HPLM + 10% dialyzed FBS | RPMI 5 mM glucose + 10% FBS | RPMI 5 mM glucose + 10% dialyzed FBS
NOMO1 [1] | 388 | 402 | 397
SEM cells [3] | 462 | 454 | 463

COc1cccc2c1C(=O)c1c(O)c3c(c(O)c1C2=O)C[C@@](O)(C(=O)CO)C[C@@H]3O[C@H]1C[C@H](N)[C@@H](O)[C@H](C)O1
AUC of viability dose-response curve
Conditions | NOMO1 [1] | P12-Ichikawa [2] | SEM cells [3]
HPLM + 10% dialyzed FBS | 369 | 364 | 359
RPMI 5 mM glucose + 10% FBS | 362 | 359 | 309
RPMI 5 mM glucose + 10% dialyzed FBS | 365 | 363 | 327

CN(C)CC(=O)N1CCC(CC1)C2=CC=C(NC(=O)C3=NC(=C[NH]3)C#N)C(=C2)\C4=C\CCCC4
AUC of viability dose-response curve
Conditions | NOMO1 [1] | P12-Ichikawa [2] | SEM cells [3]
HPLM + 10% dialyzed FBS | 458 | 467 | 359
RPMI 5 mM glucose + 10% FBS | 454 | 463 | 358
RPMI 5 mM glucose + 10% dialyzed FBS | 456 | 443 | 348

FC1=CC2=C3[N](CCN(CC3=C1)C(=O)N4CCCCC4)C=C2C/5=C(C(=O)NC5=O)\C6=CN=C7C=CC=C[N]67
SEM cells [4], HPLM + 10% dialyzed FBS
Conditions | cell viability [%]
0.000781 µM | 104
0.00234 µM | 109
0.00702 µM | 118
0.0211 µM | 57
0.0632 µM | 11.5
0.19 µM | 9.31
0.569 µM | 8.55
1.71 µM | 10.7
5.12 µM | 8.69
15.4 µM | 5.56
46.1 µM | 6.04

AUC of viability dose-response curve
Conditions | NOMO1 [1] | P12-Ichikawa [2] | SEM cells [3]
HPLM + 10% dialyzed FBS | 461 | 329 | 168
RPMI 5 mM glucose + 10% FBS | 469 | 298 | 159
RPMI 5 mM glucose + 10% dialyzed FBS | 463 | 367 | 159

CCOc1cc(N2CCC(O)CC2)ccc1Nc1ncc2c(n1)N(C)c1ccccc1C(=O)N2C
SEM cells [4], HPLM + 10% dialyzed FBS
Conditions | cell viability [%]
0.000781 µM | 106
0.00234 µM | 117
0.00702 µM | 133
0.0211 µM | 126
0.0632 µM | 130
0.19 µM | 133
0.569 µM | 139
1.71 µM | 146
5.12 µM | 119
15.4 µM | 94.9
46.1 µM | 7.22

AUC of viability dose-response curve
Conditions | NOMO1 [1] | P12-Ichikawa [2] | SEM cells [3]
HPLM + 10% dialyzed FBS | 321 | 350 | 441
RPMI 5 mM glucose + 10% FBS | 301 | 352 | 421
RPMI 5 mM glucose + 10% dialyzed FBS | 318 | 370 | 428
